Read-outs that look alike come from different tables or passages of the source.

One data set has as its target T1, GST-tagged MDM2 (Homo sapiens, UniProt Q00987).
T1 construct: purchased Cisbio Co. Ltd
The data set can be described thus: HTRF enzyme inhibition assay, MDM2. In kind it is biochemical. The note with it: compound at 1 μM. How it is done: The enzymatic assay of test compounds is using the HTRF-based method provided by Cisbio Co. Ltd. In brief, the target compounds to be tested were prepared into samples with a concentration of 1 μM, which was added to GST-tagged MDM2 and HDAC1 proteins, respectively, then biotinylated substrate p53 peptide and HTRF detection reagents were added. The data obtained were processed by the ratio method, and the inhibition rates of MDM2 and HDAC1 were calculated. The detailed experimental procedures are according to the manufacturer’s protocols.
A general note: Time-resolved FRET reads energy transfer from a long-lived donor to a nearby acceptor.

A further data set deals with A431 cells. As to the kind of experiment: MTT antiproliferative assay, A431.
The test system of the next data set is MCF-7 cells. As to the kind of experiment: MTT antiproliferative assay, MCF-7.
The target of the next data set is HDAC1 (Homo sapiens, UniProt Q13547). As to the kind of experiment: HTRF enzyme inhibition assay, HDAC1. To be noted: for % enzyme inhibition HDAC: compound at 1 μM, HTRF, method names HDAC1 protein; for inhibition at 1 µM: read-out: % enzyme inhibition HDAC.
Sequence of HDAC1 (Q13547 whole entry): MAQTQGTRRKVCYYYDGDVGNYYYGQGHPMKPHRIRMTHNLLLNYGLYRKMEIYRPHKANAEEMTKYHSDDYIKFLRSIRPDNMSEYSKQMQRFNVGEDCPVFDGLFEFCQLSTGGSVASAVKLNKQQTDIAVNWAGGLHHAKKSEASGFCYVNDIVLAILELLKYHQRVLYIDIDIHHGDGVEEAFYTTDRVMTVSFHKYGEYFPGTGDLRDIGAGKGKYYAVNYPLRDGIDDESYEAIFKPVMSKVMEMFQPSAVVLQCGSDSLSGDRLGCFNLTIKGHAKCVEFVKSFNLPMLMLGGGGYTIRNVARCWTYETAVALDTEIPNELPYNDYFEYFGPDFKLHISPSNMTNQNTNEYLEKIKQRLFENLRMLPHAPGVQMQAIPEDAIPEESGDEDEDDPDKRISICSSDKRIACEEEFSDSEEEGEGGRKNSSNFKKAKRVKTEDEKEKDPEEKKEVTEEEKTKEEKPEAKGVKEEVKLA
The test system of a further data set is HCT116 cells. As to the kind of experiment: MTT antiproliferative assay, HCT116.
Where [1] appears, read: read-out: IC50 A431, MTT, A431 human epidermal carcinoma, mean ± standard of at least three replicates.
The mark [2] stands for this setting: read-out: IC50 MCF-7, MTT, MCF-7 human breast cancer, mean ± standard of at least three replicates.
[3] abbreviates: read-out: IC50 HCT116, MTT, HCT116 human colorectal cancer, mean ± standard of at least three replicates.

T1 sequence (Q00987 whole entry): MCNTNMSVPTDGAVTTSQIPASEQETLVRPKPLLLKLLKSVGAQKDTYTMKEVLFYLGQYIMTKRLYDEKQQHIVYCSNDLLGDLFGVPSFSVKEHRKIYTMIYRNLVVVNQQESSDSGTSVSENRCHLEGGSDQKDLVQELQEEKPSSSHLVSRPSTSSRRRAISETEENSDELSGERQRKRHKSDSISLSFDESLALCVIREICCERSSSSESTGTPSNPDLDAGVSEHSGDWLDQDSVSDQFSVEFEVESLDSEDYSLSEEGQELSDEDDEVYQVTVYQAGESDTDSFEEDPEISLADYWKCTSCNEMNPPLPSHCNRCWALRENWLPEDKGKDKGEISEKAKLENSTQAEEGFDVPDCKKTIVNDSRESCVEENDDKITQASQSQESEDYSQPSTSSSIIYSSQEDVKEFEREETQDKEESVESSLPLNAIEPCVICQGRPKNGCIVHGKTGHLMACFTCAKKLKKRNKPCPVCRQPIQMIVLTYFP
Procedure for A431 cells: (§1) The cytotoxicity assay was performed with MTT method as previously described ([73], [88], [89]).
Procedure for HCT116 cells: as §1
Procedure for MCF-7 cells: as §1

Broadly, the IC50 is the concentration at which inhibition is half-maximal. As for “N^1-(4-((3R,6'S,7'R,7a'S)-6-chloro-6'-(3-methoxybenzoyl)-2-oxo-1',6',7',7a'-tetrahydro-3'H-spiro[indoline-3,5'-pyrrolo[1,2-c]thiazol]-7'-yl)phenyl)-N^6-hydroxyadipamide [7w]”, on GST-tagged MDM2, the “% enzyme inhibition MDM2” value was 60%. Besides, the IC50 came to 3.32 ± 0.68 µM with A431 cells (setting [1]), 3.77 ± 0.93 µM in the data set on MCF-7 cells (setting [2]) and 3.91 ± 0.84 µM in the data set on HCT116 cells (setting [3]). The “% enzyme inhibition HDAC” value on HDAC1 turned out to be 69%.

As a reminder, the inhibition is how much of the control response was suppressed. The term melting point denotes the temperature of the solid-liquid transition. In turn, `O=C(COCC(=O)Nc1ccc([C@@H]2[C@H]3CSCN3[C@]3(C(=O)Nc4cc(Cl)ccc43)[C@H]2C(=O)c2ccccc2)cc1)NO` [7u, N-(4-((3R,6'S,7'R,7a'S)-6'-benzoyl-6-chloro-2-oxo-1',6',7',7a'-tetrahydro-3'H-spiro[indoline-3,5'-pyrrolo[1,2-c]thiazol]-7'-yl)phenyl)-2-(2-(hydroxyamino)-2-oxoethoxy)acetamide] showed a melting point of 167.1 to 168.5 °C. Further, the inhibition at 1 µM on GST-tagged MDM2 came out at 61%. Moreover, in the data set with A431 cells (Homo sapiens, A-431, read-out: IC50 A431), the IC50 amounted to 3.64 ± 0.56 µM. Besides, the IC50 in the data set with MCF-7 cells (Homo sapiens, MCF7, read-out: IC50 MCF-7) was 3.47 ± 0.92 µM. In addition, the inhibition at 1 µM on HDAC1 is 54%. For the same compound, the IC50 in the data set on HCT116 cells (Homo sapiens, HCT-116, read-out: IC50 HCT116) worked out at 4.59 ± 0.91 µM.

In the case of “N^1-(4-((3R,6'S,7'R,7a'S)-6-chloro-6'-(4-fluorobenzoyl)-2-oxo-1',6',7',7a'-tetrahydro-3'H-spiro[indoline-3,5'-pyrrolo[1,2-c]thiazol]-7'-yl)phenyl)-N^6-hydroxyadipamide [7x]”, the “% enzyme inhibition MDM2” value on GST-tagged MDM2 came to 62%. Besides, the IC50 was 3.43 ± 0.73 µM with A431 cells (setting [1]), 2.9 ± 0.56 µM in the data set with MCF-7 cells (setting [2]) and 3.45 ± 0.57 µM in the data set on HCT116 cells (setting [3]). Also, the “% enzyme inhibition HDAC” value on HDAC1 amounted to 73%.

`COc1ccc2c(c1)[C@@]1(C(=O)N2)[C@@H](C(=O)c2ccccc2)[C@H](c2ccc(NC(=O)CCCCCCC(=O)NO)cc2)[C@H]2CSCN21` [7j, N^1-(4-((3R,6'S,7'R,7a'S)-6'-benzoyl-5-methoxy-2-oxo-1',6',7',7a'-tetrahydro-3'H-spiro[indoline-3,5'-pyrrolo[1,2-c]thiazol]-7'-yl)phenyl)-N^8-hydroxyoctanediamide] came in with a melting point of 134.9 to 136.2 °C. Besides, the inhibition at 1 µM on GST-tagged MDM2 amounted to 50%. Besides, the inhibition at 1 µM at HDAC1 stood at 70%.

`O=C(CCCCCCCCC(=O)Nc1ccc([C@@H]2[C@H]3CSCN3[C@]3(C(=O)Nc4ccccc43)[C@H]2C(=O)c2ccccc2)cc1)NO` [7q, N^1-(4-((3R,6'S,7'R,7a'S)-6'-benzoyl-2-oxo-1',6',7',7a'-tetrahydro-3'H-spiro[indoline-3,5'-pyrrolo[1,2-c]thiazol]-7'-yl)phenyl)-N^10-hydroxydecanediamide] gave a melting point of 131.9 to 132.1 °C. The compound further returned an inhibition at 1 µM against GST-tagged MDM2 of 42%. Also, the inhibition at 1 µM at HDAC1 amounted to 71%.

The compound `O=C(CCCCC(=O)Nc1ccc(C(=O)Nc2ccc([C@@H]3[C@H]4CSCN4[C@]4(C(=O)Nc5cc(Cl)ccc54)[C@H]3C(=O)c3ccccc3)cc2)cc1)NO` [7v, N^1-(4-((4-((3R,6'S,7'R,7a'S)-6'-benzoyl-6-chloro-2-oxo-1',6',7',7a'-tetrahydro-3'H-spiro[indoline-3,5'-pyrrolo[1,2-c]thiazol]-7'-yl)phenyl)carbamoyl)phenyl)-N^6-hydroxyadipamide] came in with a melting point of 175.5 to 176.6 °C. Besides, on GST-tagged MDM2, the inhibition at 1 µM is 58%. In addition, the inhibition at 1 µM at HDAC1 is 53%.

The compound `Nc1ccccc1NC(=O)CCCCCCCCC(=O)Nc1ccc([C@@H]2[C@H]3CSCN3[C@]3(C(=O)Nc4cc(Cl)ccc43)[C@H]2C(=O)c2ccccc2)cc1` [9e, N^1-(2-aminophenyl)-N^10-(4-((3R,6'S,7'R,7a'S)-6'-benzoyl-6-chloro-2-oxo-1',6',7',7a'-tetrahydro-3'H-spiro[indoline-3,5'-pyrrolo[1,2-c]thiazol]-7'-yl)phenyl)decanediamide] yielded a melting point of 132.4 to 133.9 °C. Besides, testing at 1 µM on GST-tagged MDM2 gave an inhibition of 56%. For the same compound, the inhibition at 1 µM on HDAC1 worked out at 47%.
